PubChem BioAssay (NCI)
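Protocol summary: plate cells (96-well), add compound at 5 concentrations, incubate 48 h, interpolate endpoints linearly. TGI marks complete inhibition of growth.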

Key:
Assay in all cases: NCI-60 cell line screen, 48 h
NCI-H23 lung = system: NCI-H23 lung
OVCAR-4 ovarian = system: OVCAR-4 ovarian
NCI/ADR-RES ovarian = system: NCI/ADR-RES ovarian
UACC-62 melanoma = system: UACC-62 melanoma
A498 renal = system: A498 renal
A549 NSCLC = system: A549 NSCLC
SF-268 CNS = system: SF-268 CNS
K-562 leukemia = system: K-562 leukemia
T-47D breast = system: T-47D breast
NCI-H226 lung = system: NCI-H226 lung
SNB-19 CNS = system: SNB-19 CNS
MDA-MB-231 breast = system: MDA-MB-231 breast
SF-295 CNS = system: SF-295 CNS
UO-31 renal = system: UO-31 renal
RPMI-8226 leukemia = system: RPMI-8226 leukemia
HT29 colon = system: HT29 colon
ACHN renal = system: ACHN renal
BT-549 breast = system: BT-549 breast
NCI-H460 lung = system: NCI-H460 lung
DU-145 prostate = system: DU-145 prostate
HOP-62 NSCLC = system: HOP-62 NSCLC
SK-OV-3 ovarian = system: SK-OV-3 ovarian
COLO 205 colon = system: COLO 205 colon
RXF 393 renal = system: RXF 393 renal
SK-MEL-28 melanoma = system: SK-MEL-28 melanoma
OVCAR-8 ovarian = system: OVCAR-8 ovarian
EKVX NSCLC = system: EKVX NSCLC
KM12 colon = system: KM12 colon
MALME-3M melanoma = system: MALME-3M melanoma
U251 CNS = system: U251 CNS
SK-MEL-2 melanoma = system: SK-MEL-2 melanoma
UACC-257 melanoma = system: UACC-257 melanoma
CAKI-1 renal = system: CAKI-1 renal
HCC-2998 colon = system: HCC-2998 colon
SNB-75 CNS = system: SNB-75 CNS
MDA-N = system: MDA-N
MOLT-4 leukemia = system: MOLT-4 leukemia
PC-3 prostate = system: PC-3 prostate
OVCAR-3 ovarian = system: OVCAR-3 ovarian
M14 melanoma = system: M14 melanoma
CCRF-CEM leukemia = system: CCRF-CEM leukemia
MDA-MB-435 = system: MDA-MB-435
HCT-15 colon = system: HCT-15 colon
SF-539 CNS = system: SF-539 CNS
HCT-116 colon = system: HCT-116 colon
MCF7 breast = system: MCF7 breast
SW-620 colon = system: SW-620 colon
786-0 renal = system: 786-0 renal
OVCAR-5 ovarian = system: OVCAR-5 ovarian
SN12C renal = system: SN12C renal
HOP-92 NSCLC = system: HOP-92 NSCLC
IGROV1 ovarian = system: IGROV1 ovarian
SR leukemia = system: SR leukemia
NCI-H522 lung = system: NCI-H522 lung
HL-60(TB) leukemia = system: HL-60(TB) leukemia

Measured: TGI

CCOC(CI)O[C@@H]1C=C[C@H](OC(C)=O)C1 (stereo not given in full)
> 100 µM: NCI-H23 lung | OVCAR-4 ovarian | NCI/ADR-RES ovarian | UACC-62 melanoma | A498 renal | A549 NSCLC | SF-268 CNS | K-562 leukemia | T-47D breast | NCI-H226 lung | SNB-19 CNS | MDA-MB-231 breast | SF-295 CNS | UO-31 renal | RPMI-8226 leukemia | HT29 colon | ACHN renal | BT-549 breast | NCI-H460 lung | DU-145 prostate | HOP-62 NSCLC | SK-OV-3 ovarian | COLO 205 colon | RXF 393 renal | SK-MEL-28 melanoma | OVCAR-8 ovarian | EKVX NSCLC | KM12 colon | MALME-3M melanoma | U251 CNS | SK-MEL-2 melanoma | UACC-257 melanoma | CAKI-1 renal | HCC-2998 colon | SNB-75 CNS | MDA-N | MOLT-4 leukemia | PC-3 prostate | OVCAR-3 ovarian | M14 melanoma | CCRF-CEM leukemia | MDA-MB-435 | HCT-15 colon | SF-539 CNS | HCT-116 colon | MCF7 breast | SW-620 colon | 786-0 renal | OVCAR-5 ovarian | SN12C renal

COc1ccc(N2C(=O)c3cccnc3S2(=O)=O)cc1
> 100 µM: NCI-H23 lung | OVCAR-4 ovarian | NCI/ADR-RES ovarian | UACC-62 melanoma | A498 renal | A549 NSCLC | SF-268 CNS | K-562 leukemia | T-47D breast | NCI-H226 lung | SNB-19 CNS | MDA-MB-231 breast | SF-295 CNS | UO-31 renal | RPMI-8226 leukemia | HT29 colon | ACHN renal | BT-549 breast | NCI-H460 lung | DU-145 prostate | HOP-62 NSCLC | SK-OV-3 ovarian | COLO 205 colon | RXF 393 renal | SK-MEL-28 melanoma | OVCAR-8 ovarian | EKVX NSCLC | KM12 colon | MALME-3M melanoma | HOP-92 NSCLC | IGROV1 ovarian | U251 CNS | SK-MEL-2 melanoma | UACC-257 melanoma | CAKI-1 renal | HCC-2998 colon | SNB-75 CNS | MDA-N | SR leukemia | MOLT-4 leukemia | NCI-H522 lung | PC-3 prostate | OVCAR-3 ovarian | M14 melanoma | CCRF-CEM leukemia | HL-60(TB) leukemia | MDA-MB-435 | HCT-15 colon | SF-539 CNS | HCT-116 colon | MCF7 breast | SW-620 colon | 786-0 renal | OVCAR-5 ovarian | SN12C renal
